Measured values from ChEMBL document CHEMBL1137983, “AL-12182, a novel 11-oxa prostaglandin analog with topical ocular hypotensive activity in the monkey” (Bioorg Med Chem Lett, 2004).

Key:
[1] = biological target: Prostaglandin F2-alpha receptor (Bos taurus, UniProt P37289); assay: Binding affinity for Prostanoid FP receptor of bovine corpus luteum
[2] = biological target: Prostaglandin F2-alpha receptor (Mus musculus) (UniProt P43117); assay: Percent response for stimulation of prostanoid FP receptor-linked phosphoinositide turnover in Swiss 3T3 mouse fibroblast cells
[3] = organism: Oryctolagus cuniculus; assay: Effective dose estimated to elicit conjunctival hyperemia in rabbits over 4 h; type: functional, Conjunctiva
[4] = test system: Monkey; assay: Percentage change to elicit monkey intraocular pressure at 3 ug; type: functional, Cercopithecidae, Eye
[5] = organism: Felis catus; assay: Effective dose to cat pupil diameter constriction
[6] = test system: Monkey; assay: Percentage change to elicit monkey intraocular pressure at 0.3 ug; type: functional, Cercopithecidae, Eye
[7] = test system: Monkey; assay: Percentage change to elicit monkey intraocular pressure at 1 ug; type: functional, Cercopithecidae, Eye
[8] = test system: Monkey; assay: Percentage change to elicit monkey intraocular pressure at 30 ug; type: functional, Cercopithecidae, Eye

Chain of Prostaglandin F2-alpha receptor (Mus musculus) (P43117 whole entry, looked up): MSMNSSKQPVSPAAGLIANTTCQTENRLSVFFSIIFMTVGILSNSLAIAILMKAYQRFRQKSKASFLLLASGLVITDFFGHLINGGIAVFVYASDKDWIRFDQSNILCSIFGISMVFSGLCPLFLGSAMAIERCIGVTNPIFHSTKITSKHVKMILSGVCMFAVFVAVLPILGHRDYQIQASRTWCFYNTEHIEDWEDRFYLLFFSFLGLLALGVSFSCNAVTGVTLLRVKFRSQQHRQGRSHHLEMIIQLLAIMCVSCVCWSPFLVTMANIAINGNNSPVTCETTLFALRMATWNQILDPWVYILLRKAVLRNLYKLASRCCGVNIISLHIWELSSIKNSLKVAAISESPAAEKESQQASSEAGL
Chain of Prostaglandin F2-alpha receptor (P37289 whole entry): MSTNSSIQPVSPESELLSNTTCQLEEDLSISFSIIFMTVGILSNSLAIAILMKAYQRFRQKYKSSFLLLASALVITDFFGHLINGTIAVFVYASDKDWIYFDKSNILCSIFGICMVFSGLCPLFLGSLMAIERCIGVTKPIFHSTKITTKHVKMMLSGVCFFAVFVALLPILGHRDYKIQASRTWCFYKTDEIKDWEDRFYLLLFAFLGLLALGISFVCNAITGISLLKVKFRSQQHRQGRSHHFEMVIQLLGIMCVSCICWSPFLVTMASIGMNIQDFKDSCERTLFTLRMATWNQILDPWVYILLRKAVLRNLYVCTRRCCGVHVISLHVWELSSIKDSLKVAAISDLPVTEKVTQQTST

| Ki [1] [nM] | Response [2] [%] | SMILES | other results |
| --- | --- | --- | --- |
| 3100 | 74 | O=C(O)CCCC/C=C\C[C@H]1[C@@H](O)CO[C@@H]1/C=C/[C@@H](O)COc1cccc(C(F)(F)F)c1 |  |
| 330 | 83 | O=C(O)CC/C=C\CCC[C@H]1[C@@H](O)CO[C@@H]1/C=C/[C@@H](O)COc1ccccc1 |  |
| 9900 | 61 | O=C(O)CC/C=C\CCC[C@H]1[C@@H](O)CO[C@@H]1/C=C/[C@H](O)COc1cccc(C(F)(F)F)c1 |  |
| > 10000 | 43 | O=C(O)CCCC/C=C\C[C@H]1[C@@H](O)CO[C@@H]1/C=C/[C@H](O)COc1cccc(C(F)(F)F)c1 |  |
| 92 | 75 | CC(C)OC(=O)CCC/C=C/C[C@@H]1[C@@H](CC[C@@H](O)CCc2ccccc2)[C@H](O)C[C@@H]1O | ED5 [3]: 1.8 µg; Change [4]: -27%; ED5 [5]: 0.13 µg |
| > 10000 |  | CCCCC[C@@H](O)/C=C/[C@H]1OC[C@H](O)[C@@H]1C/C=C\CCCC(=O)O |  |
| 6700 | 64 | CCCCC[C@H](O)/C=C/[C@H]1OC[C@H](O)[C@@H]1C/C=C\CCCC(=O)O |  |
| 2800 | 49 | O=C(O)CCCC/C=C\C[C@H]1[C@@H](O)CO[C@@H]1/C=C/[C@H](O)COc1ccccc1 |  |
| 7300 | 67 | O=C(O)CCCC/C=C\C[C@H]1[C@@H](O)CO[C@@H]1/C=C/[C@H](O)COc1cccc(Cl)c1 |  |
| 890 | 84 | O=C(O)CCCC/C=C\C[C@H]1[C@@H](O)CO[C@@H]1/C=C/[C@@H](O)COc1cccc(Cl)c1 |  |
| 147 | 88 | O=C(O)CC/C=C\CCC[C@H]1[C@@H](O)CO[C@@H]1/C=C/[C@@H](O)COc1cccc(Cl)c1 |  |
| 5100 | 59 | O=C(O)CC/C=C\CCC[C@H]1[C@@H](O)CO[C@@H]1/C=C/[C@H](O)COc1ccccc1 |  |
| 52 | 100 | CC(C)OC(=O)CCC/C=C/C[C@@H]1[C@@H](/C=C/C(O)COc2cccc(C(F)(F)F)c2)[C@H](O)C[C@@H]1O (stereo partly specified) | ED5 [3]: 3 µg; Change [6]: -29%; ED5 [5]: 0.01 µg |
| 350 | 88 | O=C(O)CC/C=C\CCC[C@H]1[C@@H](O)CO[C@@H]1/C=C/[C@@H](O)COc1cccc(C(F)(F)F)c1 |  |
| 820 | 71 | O=C(O)CC/C=C\CCC[C@H]1[C@@H](O)CO[C@@H]1/C=C/[C@H](O)COc1cccc(Cl)c1 |  |
| 640 | 67 | O=C(O)CCCC/C=C\C[C@H]1[C@@H](O)CO[C@@H]1/C=C/[C@@H](O)COc1ccccc1 |  |
|  |  | CCCCC[C@H](O)/C=C/C1[C@H](O)C[C@H](O)[C@@H]1C/C=C\CCCC(=O)OC(C)C (stereo partly specified) | ED5 [3]: <0.1 µg; Change [7]: -38%; ED5 [5]: 0.03 µg |
|  |  | CC(C)OC(=O)CCC/C=C\CC[C@H]1[C@@H](O)CO[C@@H]1/C=C/[C@@H](O)COc1cccc(Cl)c1 [AL-12182] | ED5 [3]: 30 µg; Change [4]: -40%; ED5 [5]: 0.2 µg |
|  |  | CC(C)OC(=O)CCC/C=C\C[C@H]1[C@@H](O)CO[C@@H]1/C=C/[C@@H](O)COc1cccc(Cl)c1 | ED5 [3]: 30 µg; Change [8]: -15%; ED5 [5]: 0.8 µg |
